Compound | melting point [°C]
CN(C)c1ccc2c(c1)C(=O)CC(c1cccc(OCc3ccccc3)c1)=N2 | 307 to 308
Cc1ccc(-n2nc(C)cc2-c2ccnc(Cl)c2)cc1 | 100
O=C(CO)c1ccc(C2CCCCC2)cc1 | 104 to 106
COC(=O)CCCc1nnc(-c2nccs2)c2cc(OC)ccc12 | 136 to 137
COc1ccc(Cn2nnnc2C(=O)Nc2cc(Cl)cc(NC(=O)c3nnnn3Cc3ccc(OC)cc3)n2)cc1 | 201 to 203
O=C(COc1ccc(Cc2ccc(Cl)cc2)cc1)OCc1cccnc1 | 77 to 78
NC(=O)c1cnn2c1N(C(=S)NC(=O)c1ccccc1)CC=C2c1cccc(C(F)(F)F)c1 | 210 to 212
CCn1nc2c(n1)C(N1CCN(C)CC1)=Nc1cc(F)ccc1N2 | 178 to 180
CC(=O)Nc1ccc(Nc2nccc(-c3sc(C)nc3C)n2)cc1 | 219 to 220
Cc1cc(-c2ccc(C(F)(F)F)cc2)cc(-c2ccnc(-c3cccc(S(N)(=O)=O)c3)n2)n1 | > 250
Cn1c(CO)ccc1S(=O)(=O)N1CCC(CCO)(Sc2cc(C(C)(C)C)c(O)c(C(C)(C)C)c2)CC1 | 126 to 127
C=CCCCCCCCCOc1ccc(O)cc1 | 54 to 55
CCCCCCCCCCSCCCN=C=O | 89 to 92
CCOC(=O)C(C)(C)CCCCCOc1ccc(NC(=O)CCCCCn2ccnc2)cc1 | 59
CCCC(=O)NCc1nc(-c2ccc3c(c2)Nc2ccccc2S3)cs1 | 218 to 220
CC(c1ccccc1)C(C(=O)c1ccccc1)n1cncn1 (centres undefined) | 166 to 168
COC(=O)c1nc(-c2ccc(CO)cc2)cc(N)c1Cl | 138 to 139
Cc1cc(NC(=O)c2c(Cl)cccc2Cl)c2nccc(NNC(C)C)c2c1 | 154 to 156
COc1cccc(Sc2c(O)cc(-c3ccccc3)oc2=O)c1 | 130 to 131
CCOCc1cc2cccc(OC)c2o/c1=N\c1ccccc1 | 88 to 90
CN1CCC(C2c3sccc3CCn3ccnc32)CC1 (centres undefined) | 121
CCCOc1nc(N)nc(-c2ccccc2)c1-c1ccc(=O)n(C(C)C)n1 | 128 to 129
COc1ccc2ccccc2c1C(=O)/C=C/c1ncn(C(c2ccccc2)(c2ccccc2)c2ccccc2)c1C | 220 to 222
COc1cc(Cl)ccc1C(=O)NCCc1nc(-c2ccncn2)cc(=O)n1C | 121 to 123
CCOC(=O)c1cnc2ccc(OCC)nc2c1Nc1ccc(OCC(O)CO)cc1 (centres undefined) | 143 to 145

Compound | melting point [°C]
Nc1ccc(OCOc2ccc(N)cc2[N+](=O)[O-])c([N+](=O)[O-])c1 | 181
CC(CCCc1ccccc1)Oc1cc(O)c2c(c1)OC(C)(C)CC2=O (centres undefined) | 83 to 84
Cc1c(CC(=O)O)c(=O)oc2cc(C3OC(CO)C(O)C(O)C3O)ccc12 (centres undefined) | 186 to 188
CN1CCC(c2c(O)cc(O)c3c(=O)cc(-c4ccc(O)cc4Cl)oc23)C1CO (centres undefined) | > 300
Cc1[nH]c2ccccc2c1CCN1CCN(NC(=O)c2ccccc2)CC1 | 130 to 133
CCOC(=O)c1cccc(NC(=O)c2ccc(OC)c(N)c2)c1 | 144 to 146
O=Cc1c2ccccc2cc2cccc(SCCO)c12 | 103 to 104
Cc1ccc(C(O)c2c(OCc3ccccc3)c(=O)ccn2CCO)cc1 (centres undefined) | 206 to 207
COc1ccc2sc(C(=O)O)c(OCc3ccccc3)c2c1 | 150
O=C1Nc2ccc(-c3cccc(Cl)c3)cc2C(c2ccccc2)O1 (centres undefined) | 177 to 178
CCCN(Cc1ccc(-c2ccccc2-c2nnnn2C(c2ccccc2)(c2ccccc2)c2ccccc2)cc1)c1ncccc1C(=O)OCC | 129 to 131
CCc1noc(-c2ccc(C)cc2)c1-c1ccc(S(N)(=O)=O)cc1 | 191
CCN(CC)Cc1cnc(-c2ncn3c2CN(C)C(=O)c2cc(F)ccc2-3)o1 | 182 to 184
CCCCOC(=O)c1c(Cl)nc(CCCC)n1Cc1ccc2oc(-c3ccccc3-c3nnn[nH]3)c(Br)c2c1 | 88 to 90
NC(=O)C(c1ccccc1)N1C(=O)c2ccccc2C1=O (centres undefined) | 218
CCCc1nc2c(N)nc3ccccc3c2n1CCCC(C)N(OC)C(=O)Nc1ccccc1 (centres undefined) | 140 to 142
OC(c1cccs1)C1CCN(CCc2ccccc2)CC1 (centres undefined) | 123 to 125
COc1ccc(/C(=C\C=C\C(=O)O)C2CC2)cc1 | 154 to 156
CC(C)(C)OC(=O)c1cc2cc(Cl)ccc2[nH]1 | 140 to 142
COC(=O)c1ccccc1Sc1ccccc1OC | 82 to 84
COC(=O)c1cc(NC(C)=O)ccc1OC | 132 to 134
C=C(C)C(=O)OCCCOc1ccc2cc(OC(=O)C(=C)C)ccc2c1 | 68
CCOC(=O)C(C)(C)Oc1ccc(C=Cc2ccccc2)cc1 | 55 to 65
CCOCc1nc2c(N)nc3ccc(O)cc3c2n1CCCCN(C(N)=O)c1ccccc1 | 218 to 221
O=Cc1ccc(-c2ccc(O)cc2)c2ccoc12 | 184 to 185

Compound | melting point [°C]
CC(C)(C)C(=O)Cn1ccnc1 | 20
O=C(CC12CC3CC(CC(C3)C1)C2)Nc1ccc2[nH]ccc2c1 | 184 to 185
CCOc1ccccc1-c1oc2c(C(=O)OCCO)cccc2c(=O)c1C | 143 to 144
CC(=O)Oc1ccc(-c2c3ccccc3cc3sc(C)c(C)c23)cc1 | 147 to 150
Cc1cccc(Nc2cc(Nc3cccc(C)c3)ncn2)c1 | 242 to 244
C=CCOC(=O)c1ccc(OC(=O)C2CC3=C(C2)C(C)(C)CCC3(C)C)cc1 | 48 to 50
CCCCCCCNC(=O)Nc1ccccc1C(=O)NCCC(c1ccccc1)c1ccccc1 | 118
OCCn1c2ccccc2c2c(N3CCCC3)nc(N3CCCC3)nc21 | 110
CC(=O)Oc1ccc(CCc2cccc(OC(C)=O)c2)cc1 | 69.5 to 70
CC(C)(C)c1ccc(Sc2ccsc2CN(O)C(N)=O)cc1 | 144 to 146
C=CCOc1cc(-n2ncc(C(F)(F)F)c(C)c2=O)c(F)cc1Cl | 79.8
O=C(CBr)Nc1cccc(F)c1C(=O)O | 169 to 170
C1=C(/C=C/c2ccccc2)CCN(Cc2n[nH]c3c2CCc2ccccc2-3)C1 | 205 to 210
O=C(c1ccccc1)c1cc([N+](=O)[O-])ccc1NCc1ccccc1 | 120
CCSc1cc(C)nc(SCC)c1NC(=O)CCCSc1nc2cccc(C(F)(F)F)c2o1 | 148 to 150
O=c1[nH]c2ccccc2n1CCN1CCN(Cc2ccccc2)CC1 | 136
COc1ccccc1-c1cc2cnc(N)nc2nc1NC(=O)NC(C)(C)C | 300 to 301
CCNC(=S)NS(=O)(=O)c1cc2c(cc1OC)OCCC2CNC(=O)N1CC(C)=C(CC)C1=O (centres undefined) | 147
O=C(CCc1cnoc1-c1ccccc1)Nc1nc(-c2ccc(Cl)cc2)cs1 | 172 to 173
Cc1cc2ncc(NC(=O)C=Cc3ccc(O)c(O)c3)c(-c3ccccc3Cl)c2cc1C | 272 to 274
CC(C)(C)OC(=O)N[C@@H](COC(=O)C(C)(C)C)Cc1ccccc1 | 59 to 60
CC(C)(C)c1ccc(S(=O)(=O)NCCCCOc2ccc(-n3ccnc3)cc2)cc1 | 138 to 140
CC(C)(C)OC(=O)N1CCC(c2ccc(N3C[C@H](CNC(=O)C(Cl)Cl)OC3=O)cc2F)CC1 | 168 to 170
CCCCOc1cc(C(N)=O)nn1Cc1ccc(Cl)cc1 | 137 to 138
CCN1CCc2c([nH]c3ccccc23)C1CNC(=O)OCc1ccccc1 (centres undefined) | 92 to 94

Compound | melting point [°C]
CCCOc1ccc(CCCOc2nn(Cc3ccccc3)cc2CC(=O)O)c(Oc2ncc(C(F)(F)F)cc2Cl)c1 | 96.5 to 97.5
COc1ccc2c(c1)N(C)C(=S)C2 | 135 to 136
CC12CCC3c4ccc(C(=O)O)cc4CCC3C1CCC2C(=O)CCc1ccc(C(=O)O)cc1 (centres undefined) | 285 to 290
Cc1nnc(Br)n1-c1ccc(Cl)cc1C(=O)c1ccccc1 | 198 to 199
CCc1ccc(-c2ncccc2S(=O)(=O)Nc2ncc(C)nc2OC)cc1 | 73
NC(=O)N(O)CCNC(=O)c1ccc(-c2ccccc2)cc1 | 160 to 162
COC(=O)c1cccc2nc(OC)n(Cc3ccc(-c4ccccc4C#N)cc3)c12 | 149 to 150
CC(C)(C)OC(=O)Nc1cc(OCc2ccccc2)cc(OCc2ccccc2)c1 | 96 to 98
COC(=O)c1ccc(Nc2ccc(C(=O)OC)cc2)cc1 | 174 to 175
CCOc1ccc(N2CCN(c3c(C)c4c(c(OCC)c3C)OC(C)C4)CC2)cc1 (centres undefined) | 121 to 122
O=C(O)CCC(O)c1ccc(-c2ccccc2)c(F)c1 (centres undefined) | 133 to 135
CCCCc1c2c(nc3cc(F)ccc13)-c1cc3c(c(=O)n1C2)COC(=O)CC3(O)CC (centres undefined) | 235 to 236
O=C(O)c1nc2ccccc2n(Cc2ccccc2)c1=O | 149 to 150
CN(c1cccc2cc(-c3nc(CCC(N)=O)cs3)[nH]c12)S(=O)(=O)c1cccs1 | 200 to 201
CN1CCN(S(=O)(=O)Nc2ccc(-c3nc(-c4ccc(F)cc4)c(-c4ccncc4)[nH]3)cc2)CC1 | 74 to 76
CNc1cccc(NC(=O)CO)c1C#N | 160 to 162
O=c1oc2c(c(O)c1C(c1ccccc1)C1CC1)CCCCC2CC1CC1 (centres undefined) | 77 to 83
COC(=O)c1ccc(-c2cc(-c3ccc(Cl)cc3)on2)cc1 | 225 to 226
CC(c1ncnc(Cl)c1Cl)C(O)(Cn1cncn1)c1ccc(F)cc1F (centres undefined) | 124
CC(C)(C)OC(=O)NS(=O)(=O)c1ccc(Cl)cc1 | 98 to 99
CCOC(=O)/C=C/c1ccc(OCC2CCCO2)cc1Oc1ncc(C(F)(F)F)cc1Cl (centres undefined) | 84 to 86
CC(Cc1cccnc1)n1nnc2cc3c(=O)n(C4CC4)nnc3cc2c1=O (centres undefined) | 160 to 161
CN(C)C=C(C#N)C(=O)c1cc(F)c(Cl)cc1Cl | 138 to 139
O=[N+]([O-])c1ccccc1SC1SCC(O)C(O)C1O (centres undefined) | 185

Source: a melting point compilation (Tetko et al.; mined from patent text by program, amines drawn as free bases though some values may be those of a salt)
